The values below come from patent publication US8530493B2, “Indolopyridines as Eg5 kinesin modulators” (4SC AG, priority 2006, dated 2013).

In the experiment the test system is RKO p21 uninduced (proliferating) colon adenocarcinoma cells. The experiment in a line: Alamar Blue cell viability assay, RKO p21 uninduced (proliferating). It is filed as cell-based. To be noted: Homo sapiens, Table B3, anti-proliferative/cytotoxic activity, 72 hours, read-out: −log EC50 RKO p21 uninduced (proliferating) (converted). An outline of the steps: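 Viability read by Alamar Blue fluorescence (ex 544, em 590 nm), normalised to untreated wells, after 72 h, 37° C, 5% CO2 compound exposure in triplicate. Cells were uninduced (no Ponasterone A), proliferating RKO colon carcinoma p27 or p21 subclones in DMEM with 10% FCS; values are −log EC50 (mol/l).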
Background: The colour change of resazurin is a common sign of viable cells or microbes.
Usually EC50 stands for the concentration at which the effect is half-maximal. On to `CCN(C)CCCN1C(=O)N2[C@H](c3cccc(O)c3)c3[nH]c4ccc(OC)cc4c3C[C@@]2(C)C1=O` [Example 541, (3aS,10R)-2-[3-(Ethyl-methyl-amino)-propyl]-10-(3-hydroxy-phenyl)-6-methoxy-3a-methyl-3a,4,9,10-tetrahydro-2,9,10a-triaza-cyclopenta[b]fluorene-1,3-dione], for which the EC50 was at most 39.8 nM.

As for `CCN(CC)CCN1C(=O)N2[C@H](c3cccc(O)c3)c3[nH]c4ccc(OC(F)F)cc4c3C[C@@]2(C)C1=O` (racemic) [Example 276, (3aSR,10RS)-2-(2-Diethylamino-ethyl)-6-(1,1-difluoro-methoxy)-10-(3-hydroxy-phenyl)-3a-methyl-3a,4,9,10-tetrahydro-2,9,10a-triaza-cyclopenta[b]fluorene-1,3-dione], the EC50 was at most 39.8 nM.

As for `COCCNCCN1C(=O)N2[C@H](c3cccc(O)c3)c3[nH]c4ccc(OC(F)F)cc4c3C[C@@]2(C)C1=O` (racemic) [Example 271, (3aSR,10RS)-6-(1,1-Difluoro-methoxy)-10-(3-hydroxy-phenyl)-2-[2-(2-methoxy-ethylamino)-ethyl]-3a-methyl-3a,4,9,10-tetrahydro-2,9,10a-triaza-cyclopenta[b]fluorene-1,3-dione], the EC50 is at most 39.8 nM. For the compound `CCN(CCO)CCCN1C(=O)N2[C@H](c3cccc(O)c3)c3[nH]c4cc(F)c(Cl)cc4c3C[C@@]2(C)C1=O` (racemic) [Example 470, (3aSR,10RS)-6-Chloro-2-{3-[ethyl-(2-hydroxy-ethyl)-amino]-propyl}-7-fluoro-10-(3-hydroxy-phenyl)-3a-methyl-3a,4,9,10-tetrahydro-2,9,10a-triaza-cyclopenta[b]fluorene-1,3-dione], the EC50 is at most 39.8 nM.

`COc1cc2c3c([nH]c2cc1F)[C@@H](c1cccc(O)c1)N1C(=O)N(CCNC2CCC2)C(=O)[C@]1(C)C3` (racemic) [Example 426, (3aSR,10RS)-2-(2-Cyclobutylamino-ethyl)-7-fluoro-10-(3-hydroxy-phenyl)-6-methoxy-3a-methyl-3a,4,9,10-tetrahydro-2,9,10a-triaza-cyclopenta[b]fluorene-1,3-dione]: the EC50 was at most 39.8 nM.

On to `CCOc1ccc2[nH]c3c(c2c1)C[C@@]1(C)C(=O)N(CCNC2CCC2)C(=O)N1[C@@H]3c1cccc(O)c1` (racemic) [Example 155, (3aSR,10RS)-2-(2-Cyclobutylamino-ethyl)-6-ethoxy-10-(3-hydroxy-phenyl)-3a-methyl-3a,4,9,10-tetrahydro-2,9,10a-triaza-cyclopenta[b]fluorene-1,3-dione], for which the EC50 was at most 39.8 nM. As for `CCOc1ccc2[nH]c3c(c2c1)C[C@@]1(C)C(=O)N(CCNC(C)C)C(=O)N1[C@@H]3c1cccc(O)c1` (racemic) [Example 152, (3aSR,10RS)-6-Ethoxy-10-(3-hydroxy-phenyl)-2-(2-isopropylamino-ethyl)-3a-methyl-3a,4,9,10-tetrahydro-2,9,10a-triaza-cyclopenta[b]fluorene-1,3-dione], the EC50 was at most 39.8 nM. To `CCOc1ccc2[nH]c3c(c2c1)C[C@@]1(C)C(=O)N(CCCN2CCCCC2)C(=O)N1[C@@H]3c1cccc(O)c1` (racemic) [Example 223, (3aSR,10RS)-6-Ethoxy-10-(3-hydroxy-phenyl)-3a-methyl-2-(3-piperidin-1-yl-propyl)-3a,4,9,10-tetrahydro-2,9,10a-triaza-cyclopenta[b]fluorene-1,3-dione] belongs 39.8 to 251 nM; to `C[C@@]12Cc3c([nH]c4cc(F)c(Cl)cc34)[C@@H](c3cccc(O)c3)N1C(=O)N(CCCN1CCOCC1)C2=O` (racemic) [Example 475, (3aSR,10RS)-6-Chloro-7-fluoro-10-(3-hydroxy-phenyl)-3a-methyl-2-(3-morpholin-4-yl-propyl)-3a,4,9,10-tetrahydro-2,9,10a-triaza-cyclopenta[b]fluorene-1,3-dione], 39.8 to 251 nM. To `CCN(CCO)CCCN1C(=O)N2[C@H](c3cccc(O)c3)c3[nH]c4ccc(Br)cc4c3C[C@@]2(C)C1=O` (racemic) [Example 231, (3aSR,10RS)-6-Bromo-2-{3-[ethyl-(2-hydroxy-ethyl)-amino]-propyl}-10-(3-hydroyx-phenyl)-3a-methyl-3a,4,9,10-tetrahydro-2,9,10a-triaza-cyclopenta[b]fluorene-1,3-dione] belongs at most 39.8 nM; to `CN(CCO)CCN1C(=O)N2[C@H](c3cccc(O)c3)c3[nH]c4ccc(OC(F)F)cc4c3C[C@@]2(C)C1=O` (racemic) [Example 288, (3aSR,10RS)-6-(1,1-Difluoro-methoxy)-2-{2-[(2-hydroxy-ethyl)-methyl-amino]-ethyl}-10-(3-hydroxy-phenyl)-3a-methyl-3a,4,9,10-tetrahydro-2,9,10a-triaza-cyclopenta[b]fluorene-1,3-dione], 39.8 to 251 nM. With `C[C@@]12Cc3c([nH]c4cc(F)c(Cl)cc34)[C@@H](c3cccc(O)c3)N1C(=O)N(CCCN1CCCCC1)C2=O` (racemic) [Example 478, (3aSR,10RS)-6-Chloro-7-fluoro-10-(3-hydroxy-phenyl)-3a-methyl-2-(3-piperidin-1-yl-propyl)-3a,4,9,10-tetrahydro-2,9,10a-triaza-cyclopenta[b]fluorene-1,3-dione], the EC50 was at most 39.8 nM. To `COc1cc2c3c([nH]c2cc1F)[C@@H](c1cccc(O)c1)N1C(=O)N(CCCNC(C)C)C(=O)[C@]1(C)C3` (racemic) [Example 331, (3aSR,10RS)-7-Fluoro-10-(3-hydroxy-phenyl)-2-{3-isopropylamino-propyl)-6-methoxy-3a-methyl-3a,4,9,10-tetrahydro-2,9,10a-triaza-cyclopenta[b]fluorene-1,3-dione] belongs 39.8 to 251 nM. To `COc1cc2c3c([nH]c2cc1F)[C@@H](c1cccc(O)c1)N1C(=O)N(CCNC(C)C)C(=O)[C@]1(C)C3` (racemic) [Example 250, (3aSR,10RS)-7-Fluoro-10-(3-hydroxy-phenyl)-2-(2-isopropylamino-ethyl)-6-methoxy-3a-methyl-3a,4,9,10-tetrahydro-2,9,10a-triaza-cyclopenta[b]fluorene-1,3-dione] belongs at most 39.8 nM. Consider `C[C@@]12Cc3c([nH]c4ccc(OC(F)F)cc34)[C@@H](c3cccc(O)c3)N1C(=O)N(CCCN1CCOCC1)C2=O` (racemic) [Example 236, (3aSR,10RS)-6-(1,1-Difluoro-methoxy)-10-(3-hydroxy-phenyl)-3a-methyl-2-(3-morpholin-4-yl-propyl)-3a,4,9,10-tetrahydro-2,9,10a-triaza-cyclopenta[b]fluorene-1,3-dione], for which the EC50 was 39.8 to 251 nM. Consider `CC(C)(C)NCCN1C(=O)N2[C@H](c3cccc(O)c3)c3[nH]c4cc(F)c(Cl)cc4c3C[C@@]2(C)C1=O` (racemic) [Example 345, (3aSR,10RS)-2-(2-tert-Butylamino-ethyl)-6-chloro-7-fluoro-10-(3-hydroxy-phenyl)-3a-methyl-3a,4,9,10-tetrahydro-2,9,10a-triaza-cyclopenta[b]fluorene-1,3-dione], for which the EC50 was at most 39.8 nM. Then `CCOc1ccc2[nH]c3c(c2c1)C[C@@]1(C)C(=O)N(CCCN(CC)CCO)C(=O)N1[C@@H]3c1cccc(O)c1` (racemic) [Example 194, (3aSR,10RS)-6-Ethoxy-2-{3-[ethyl-(2-hydroxy-ethyl)-amino]-propyl}-10-(3-hydroxy-phenyl)-3a-methyl-3a,4,9,10-tetrahydro-2,9,10a-triaza-cyclopenta[b]fluorene-1,3-dione], with 39.8 to 251 nM; and `CN(CCO)CCCN1C(=O)N2[C@H](c3cccc(O)c3)c3[nH]c4ccc(OC(F)F)cc4c3C[C@@]2(C)C1=O` (racemic) [Example 453, (3aSR,10RS)-6-(1,1-Difluoro-methoxy)-2-{3-[(2-hydroxy-ethyl)-methyl-amino]-propyl}-10-(3-hydroxy-phenyl)-3a-methyl-3a,4,9,10-tetrahydro-2,9,10a-triaza-cyclopenta[b]fluorene-1,3-dione], with at most 39.8 nM; and `C[C@@]12Cc3c([nH]c4cc(F)c(Cl)cc34)[C@@H](c3cccc(O)c3)N1C(=O)N(CCNC1CCC1)C2=O` (racemic) [Example 344, (3aSR,10RS)-6-Chloro-2-(2-cyclobutylamino-ethyl)-7-fluoro-10-(3-hydroxy-phenyl)-3a-methyl-3a,4,9,10-tetrahydro-2,9,10a-triaza-cyclopenta[b]fluorene-1,3-dione], with at most 39.8 nM. Then `CCN(CCCN1C(=O)N2[C@H](c3cccc(O)c3)c3[nH]c4ccc(Cl)cc4c3C[C@@]2(C)C1=O)CCOC` (racemic) [Example 397, (3aSR,10RS)-6-Chloro-2-{3-[ethyl-(2-methoxy-ethyl)-amino]-propyl}-10-(3-hydroxy-phenyl)-3a-methyl-3a,4,9,10-tetrahydro-2,9,10a-triaza-cyclopenta[b]fluorene-1,3-dione], with at most 39.8 nM. Then `COCCNCCCN1C(=O)N2[C@H](c3cccc(O)c3)c3[nH]c4ccc(OC(F)F)cc4c3C[C@@]2(C)C1=O` (racemic) [Example 205, (3aSR,10RS)-6-(1,1-Difluoro-methoxy)-10-(3-hydroxy-phenyl)-2-[3-(2-methoxy-ethylamino)-propyl]-3a-methyl-3a,4,9,10-tetrahydro-2,9,10a-triaza-cyclopenta[b]fluorene-1,3-dione], with 39.8 to 251 nM; and `CCOc1ccc2[nH]c3c(c2c1)C[C@@]1(C)C(=O)N(CCCN(C)C(C)C)C(=O)N1[C@@H]3c1cccc(O)c1` (racemic) [Example 197, (3aSR,10RS)-6-Ethoxy-10-(3-hydroxy-phenyl)-2-[3-(isopropyl-methyl-amino)-propyl]-3a-methyl-3a,4,9,10-tetrahydro-2,9,10a-triaza-cyclpenta[b]fluorene-1,3-dione], with 39.8 to 251 nM.

Turning to `CN1CCN(CCN2C(=O)N3[C@H](c4cccc(O)c4)c4[nH]c5cc(F)c(Cl)cc5c4C[C@@]3(C)C2=O)CC1` (racemic) [Example 359, (3aSR,10RS)-6-Chloro-7-fluoro-10-(3-hydroxy-phenyl)-3a-methyl-2-[2-(4-methyl-piperazin-1-yl)-ethyl]-3a,4,9,10-tetrahydro-2,9,10a--triaza-cyclopenta[b]fluorene-1,3-dione], the EC50 is 39.8 to 251 nM.
